We go through 3 compounds from patent US20120088731A1, “METHOD FOR TREATING PARKINSON'S DISEASE THROUGH REGULATING VDAC1 PROTEIN” (SNU R&DB FOUNDATION, priority 2010, published 2012).

Common to all, as to assay type: cell-based
For test [1], the system named is cultured rat hippocampal neurons transfected with parkin shRNA. In words: Mitochondrial fragmentation in neurons transfected with parkin shRNA (immunocytochemistry). Conditions: AA 48 hours, CsA 24 hours, Ru360 24 hours; for dendritic mitochondrial fragmentation induced by parkin knockdown (FIG. 4): VDAC1 shRNA 72 hours transfection, parkin shRNA at 13 DIV; for relative numbers of the neurons containing fragmented mitochondria (FIG. 5): parkin-knockdowned hippocampal neurons, VDAC1 shRNA 72 hours. From the text:
EGFP was used as a fluorescence marker to confirm the transfection of neuron with shRNA vector, and DsRed2-mito [pDsRed2-mito (Clontech)] was used as a fluorescence marker to observe mitochondria in neurons.

Test [2] deals with cultured rat hippocampal neurons transfected with PINK1 shRNA. In words: Mitochondrial fragmentation in neurons transfected with PINK1 shRNA (immunocytochemistry). Conditions: AA 48 hours, CsA 24 hours, Ru360 24 hours; for dendritic mitochondrial fragmentation induced by knockdown of PINK1 (FIG. 7): VDAC1 shRNA 72 hours transfection, PINK1 shRNA at 13 DIV; for relative number of the neurons containing fragmented mitochondria (FIG. 8): PINK1-knockdowned hippocampal neurons, VDAC1 shRNA 72 hours.

The subject of test [3] is parkin null mouse mDA neurons. In words: Mitochondrial defects of parkin null mouse mDA neurons (immunocytochemistry). Conditions: for level of the elongated mitochondria (FIG. 9): parkin null mDA neurons treated for 24 hours, 7 DIV; for relative numbers of the neurons containing fragmented mitochondria (FIG. 10): parkin null mouse mDA neurons, compared to heterozygous littermates. The method, then: (§1) Primary mouse DA neuron cultures were prepared from embryonic day (E) 13.5 mouse midbrain of parkin heterogeneous(+/−) and null(−/−) embryos [Neurobasal Media (Invitrogen)].

Test [4] relates to parkin null mouse mDA neurons. In words: Synaptic activity (mEPSCs) of parkin null mouse mDA neurons. To be noted: condition same as Experiment 6. The method, then:
as §1
It was examined whether PINK1-Parkin-VDAC1 pathway regulates the synaptic activity of the mDA neurons. To this end, the frequency and amplitude of miniature excitatory postsynaptic currents (mEPSCs) of parkin heterozygous and null mouse mDA neurons were measured.

For the compound `C[C@H]1[C@H](C)CC[C@]2(C(=O)O)CC[C@]3(C)C(=CC[C@@H]4[C@@]5(C)C[C@@H](O)[C@H](O)[C@@](C)(CO)[C@@H]5CC[C@]43C)[C@H]12` [AA, asiatic acid], in test [1], the “dendritic mitochondrial fragmentation induced by parkin knockdown (FIG. 4)” value is reported as “suppressed the dendritic mitochondrial fragmentation induced by parkin knockdown” and the “relative numbers of the neurons containing fragmented mitochondria (FIG. 5)” value was “prevents dendritic mitochondrial fragmentation in parkin-knockdowned hippocampal neurons and/or restores the fragmented mitochondria to normal elongated morphology”. Further, in test [2], the “dendritic mitochondrial fragmentation induced by knockdown of PINK1 (FIG. 7)” value was “suppressed the dendritic mitochondrial fragmentation induced by knockdown of PINK1” and the “relative number of the neurons containing fragmented mitochondria (FIG. 8)” value is on record as “prevents dendritic mitochondrial fragmentation in PINK1-knockdowned hippocampal neurons and/or restores the fragmented mitochondria to normal elongated morphology”. In test [3], the “level of the elongated mitochondria (FIG. 9)” value is “showed a significantly restored level of the elongated mitochondria” and the “relative numbers of the neurons containing fragmented mitochondria (FIG. 10)” value is reported as “significantly prevented mitochondrial fragmentation in parkin null mouse mDA neurons”. Moreover, in test [4], the “frequency of mEPSCs (FIG. 12a)” value is given as “restored the frequency of mEPSCs up to the level of heterozygotic neurons”.

As to Ru360, in test [1], the “dendritic mitochondrial fragmentation induced by parkin knockdown (FIG. 4)” value is listed as “suppressed the dendritic mitochondrial fragmentation induced by parkin knockdown” and the “relative numbers of the neurons containing fragmented mitochondria (FIG. 5)” value is given as “prevents dendritic mitochondrial fragmentation in parkin-knockdowned hippocampal neurons and/or restores the fragmented mitochondria to normal elongated morphology”. For the same compound, in test [2], the “dendritic mitochondrial fragmentation induced by knockdown of PINK1 (FIG. 7)” value is “suppressed the dendritic mitochondrial fragmentation induced by knockdown of PINK1” and the “relative number of the neurons containing fragmented mitochondria (FIG. 8)” value was “prevents dendritic mitochondrial fragmentation in PINK1-knockdowned hippocampal neurons and/or restores the fragmented mitochondria to normal elongated morphology”. Further, in test [3], the “level of the elongated mitochondria (FIG. 9)” value was “showed a significantly restored level of the elongated mitochondria” and the “relative numbers of the neurons containing fragmented mitochondria (FIG. 10)” value was “significantly prevented mitochondrial fragmentation in parkin null mouse mDA neurons”. The “frequency of mEPSCs (FIG. 12a)” value in test [4] is “restored the frequency of mEPSCs up to the level of heterozygotic neurons”.

On to cyclosporine A [CsA], for which the “dendritic mitochondrial fragmentation induced by parkin knockdown (FIG. 4)” value in test [1] is given as “suppressed the dendritic mitochondrial fragmentation induced by parkin knockdown”. In test [2], the “dendritic mitochondrial fragmentation induced by knockdown of PINK1 (FIG. 7)” value was “suppressed the dendritic mitochondrial fragmentation induced by knockdown of PINK1”.
